The source of these data is US7026350B2, “Water-soluble drugs and methods for their production” (The United States of America as represented by the …, priority 1998, dated 2006).

Data set [1] concerns N87 cells. Kind of data set: N87 proliferation measured by tritiated-thymidine incorporation. The data set is classed as cell-based. How it is done: N87 cells were exposed to the 17-demethoxy-17-aminoderivative of geldanamycin indicated in Table 1 below, and the concentration at which the proliferation of the N87 cells was inhibited by 50% was determined in nanomolar units.
(In general: Uptake of a labelled nucleoside into DNA is a usual measure of proliferation.)

Data set [2] in a line: Solubility in water.
In data set [3] the test system is HuT102 cells. Kind of data set: Internalization of radiolabeled antibody by HuT102 cells. The data set is classed as cell-based. The conditions noted are these: cells washed with dilute acid. Here is the method:
This example employs three antibodies, e21, AE1 (from Landolfi, Protein Design Labs, California), and anti-Tac (i.e., Zenapax from Hoffman-LaRoche, Inc., Nutley, N.J.). The antibodies e21 and AE1 bind Her2 with high affinity, and anti-Tac binds CD25 with high affinity. All three antibodies were radiolabeled and incubated with cells expressing the respective ligands on their cell surfaces (N87 cells for e21 and AE1 and HuT102 cells for anti-Tac). Both N87 cells and HuT102 cells are cancer cells that are known to be sensitive to the effects of geldanamycin. (HuT102 cells are cultured cells from an ATL patient available from the inventor's laboratories.) The cells were washed with dilute acid to remove unincorporated radiolabel, and the amount of radiolabel remaining in the cells was measured as an indication of the amount of antibody internalized.

The mark [4] stands for this setting: tritiated-thymidine incorporation, read-out: concentration that inhibited 50% of the N87 proliferation.

Where two headings read alike, the source gives them in different places.

For the molecule `COC1C=CC=C(C)C(=O)NC2=CC(=O)C(NCCCN)=C(CC(C)CC(OC)C(O)C(C)C=C(C)C1OC(N)=O)C2=O` (centres unmarked) [17-aminopropylamino-geldanamycin, 17-aminopropylaminogeldanamycin], in data set [1] (setting [4]), the IC50 came out at 180 nM.
“17-cys-GMB-aminopropylaminogeldanamycin [compound 4]”: the solubility in water entry in data set [2] was “water-soluble”.
As to `COC1=C2C[C@@H](C)C[C@H](OC)[C@H](O)[C@@H](C)/C=C(\C)[C@H](OC(N)=O)[C@@H](OC)/C=C\C=C(/C)C(=O)NC(=CC1=O)C2=O` [geldanamycin], the IC50 is 8.4 nM in data set [1] (Table 1, read-out: IC50 (nM), proliferation of N87 cells inhibited by 50%) and 8 nM in data set [1] (setting [4]).

B1: anti-Tac: anti-Tac (i.e., Zenapax from Hoffman-LaRoche), binds CD25 with high affinity (antibody, chains of the INN, looked up, V domains shown)
VH: QVQLVQSGAEVKKPGSSVKVSCKASGYTFTSYRMHWVRQAPGQGLEWIGYINPSTGYTEYNQKFKDKATITADESTNTAYMELSSLRSEDTAVYYCARGGGVFDYWGQGTLVTVSS
VL: DIQMTQSPSTLSASVGDRVTITCSASSSISYMHWYQQKPGKAPKLLIYTTSNLASGVPARFSGSGSGTEFTLTISSLQPDDFATYYCHQRSTYPLTFGQGTKVEVK
In the case of B1, the “radiolabel taken up by HuT102 cells (antibody internalized)” value in data set [3] was “no significant quantity”.
